Assay results from paper PMC9437101, “Curcumin-based-fluorescent probes targeting ALDH1A3 as a promising tool for glioblastoma precision surgery and early diagnosis” (Communications Biology, 2022).
Several values for one entry are separate records, joined by “and”; a condition that tells them apart may be missing. Equal entries are not always repeated.

How the values were obtained:
ALDH1A2 = molecular target: T1, ALDH1A2 (Homo sapiens, UniProt O94788); test: LC-HRMS analysis of isoenzyme activity in presence of probe; format: biochemical; settings: ALDH1A2, 1 h
T1 construct: E. coli BL21 (DE3) were transformed with the full-length expression vector of each isoform; His-tag; made in house; host or cells: E. coli BL21 (DE3)
T1 sequence (O94788 1-518): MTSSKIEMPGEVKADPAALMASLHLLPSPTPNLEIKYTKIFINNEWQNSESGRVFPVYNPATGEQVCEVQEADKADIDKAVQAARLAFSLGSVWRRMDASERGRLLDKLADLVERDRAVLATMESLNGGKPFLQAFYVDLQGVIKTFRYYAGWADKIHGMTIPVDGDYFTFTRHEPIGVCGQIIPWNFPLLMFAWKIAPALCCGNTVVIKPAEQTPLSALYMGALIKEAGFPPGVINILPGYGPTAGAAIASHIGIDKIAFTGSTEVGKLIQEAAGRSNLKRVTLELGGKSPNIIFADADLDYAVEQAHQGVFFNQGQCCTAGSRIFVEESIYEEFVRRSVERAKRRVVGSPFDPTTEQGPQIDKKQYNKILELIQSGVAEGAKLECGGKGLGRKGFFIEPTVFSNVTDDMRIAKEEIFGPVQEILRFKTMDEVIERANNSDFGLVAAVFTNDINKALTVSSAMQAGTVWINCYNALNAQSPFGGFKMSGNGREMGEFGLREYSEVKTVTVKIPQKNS
Procedure: (§1) These analyses were carried out by using UPLC-HRMS procedure with Vanquish UPLC system coupled to a Thermo Scientific Q-Exactive Plus, operating in negative electrospray ionization mode. The chromatographic separation was carried out using a Phenomenex Synergi 4 µ Polar-RP 80 A (150 × 2 mm) equipped with a Phenomenex Polar-RP (4 mm × 2 mm) security guard column. The mobile phase consisted of A: acetonitrile 0.1% formic acid and B: 0.1% formic acid. We used a linear elution gradient, starting from 80% of A to 5% A in 3 min, 3 min at 5% A, an equilibration of 4 min for a total run time of 10.00 min, at 300 µl/min flow rate. The autosampler temperature was set at 15 °C, the injection volume was 5 µl and column was maintained at 40 °C. The heated electrospray ionization source was used, with a spray voltage of […], with a capillary temperature of 300 °C, a heater temperature of 350 °C, a sheat gas flow of 45 arbitrary units (AU), an auxiliary gas flow of 10 AU and a sweep gas flow of 0 AU. During the Parallel Reaction Monitoring acquisition in negative ion mode, the instrument operated at 17,500 resolution in presence of the inclusion list (m/z = 596.20384 and m/z = 612.19875 for Probe 10 and Probe 10-COOH respectively; m/z = 534.18819 and m/z = 506.156888 for Probe 11 and Probe 11-COOH respectively) with an automatic gain control target of 2 × 10^5 charges and a maximum injection time of 100 ms. Before injecting the samples, the blanks in the list were analyzed and every biological sample was analyzed in duplicate. The biological samples analyzed were as follow: (1) Enzymatic assay Buffer; (2) Enzymatic assay Buffer + NAD^+; (3) Enzymatic assay Buffer + Probe 10 or Probe 11; (4) Enzymatic assay Buffer + ALDH1A1; (5) Enzymatic assay Buffer + ALDH1A2; (6) Enzymatic assay Buffer + ALDH1A3; (7) Enzymatic assay Buffer + ALDH1A1 + Probe 10 or Probe 11; (8) Enzymatic assay Buffer + ALDH1A2 + Probe 10 or Probe 11; (9) Enzymatic assay Buffer + ALDH1A3 + Probe 10 or Probe 11. All samples were diluted 1:1 with ACN, then 1:100 in ACN-Water 1:1 prior the LC-HRMS analysis.

ALDH1A1 = molecular target: T2, ALDH1A1 (Homo sapiens, UniProt P00352); test: as above; format: biochemical; settings: ALDH1A1, 1 h
T2 construct: E. coli BL21 (DE3) were transformed with the full-length expression vector of each isoform; His-tag; made in house; host or cells: E. coli BL21 (DE3)
T2 sequence (P00352 1-501): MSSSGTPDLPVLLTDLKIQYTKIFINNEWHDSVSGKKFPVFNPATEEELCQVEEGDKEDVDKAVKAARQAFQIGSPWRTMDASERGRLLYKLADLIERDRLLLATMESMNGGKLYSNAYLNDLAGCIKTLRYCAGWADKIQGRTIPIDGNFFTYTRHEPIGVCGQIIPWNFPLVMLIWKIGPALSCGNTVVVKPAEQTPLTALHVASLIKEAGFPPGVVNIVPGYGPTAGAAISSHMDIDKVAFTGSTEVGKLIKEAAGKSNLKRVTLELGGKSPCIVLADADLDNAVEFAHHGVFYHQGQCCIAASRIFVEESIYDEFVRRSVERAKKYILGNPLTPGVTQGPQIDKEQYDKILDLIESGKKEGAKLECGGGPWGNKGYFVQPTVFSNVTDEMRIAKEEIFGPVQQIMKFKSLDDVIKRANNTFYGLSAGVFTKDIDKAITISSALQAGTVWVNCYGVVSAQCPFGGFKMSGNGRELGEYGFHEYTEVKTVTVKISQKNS
Procedure: as §1

[1] = LC-HRMS analysis, enzymatic assay buffer + probe without enzyme; settings: 1 h
Procedure: These analyses were carried out by using UPLC-HRMS procedure with Vanquish UPLC system coupled to a Thermo Scientific Q-Exactive Plus, operating in negative electrospray ionization mode. The chromatographic separation was carried out using a Phenomenex Synergi 4 µ Polar-RP 80 A (150 × 2 mm) equipped with a Phenomenex Polar-RP (4 mm × 2 mm) security guard column. The mobile phase consisted of A: acetonitrile 0.1% formic acid and B: 0.1% formic acid. We used a linear elution gradient, starting from 80% of A to 5% A in 3 min, 3 min at 5% A, an equilibration of 4 min for a total run time of 10.00 min, at 300 µl/min flow rate. The autosampler temperature was set at 15 °C, the injection volume was 5 µl and column was maintained at 40 °C. […] Before injecting the samples, the blanks in the list were analyzed and every biological sample was analyzed in duplicate. The biological samples analyzed were as follow: (1) Enzymatic assay Buffer; (2) Enzymatic assay Buffer + NAD^+; (3) Enzymatic assay Buffer + Probe 10 or Probe 11; (4) Enzymatic assay Buffer + ALDH1A1; (5) Enzymatic assay Buffer + ALDH1A2; (6) Enzymatic assay Buffer + ALDH1A3; (7) Enzymatic assay Buffer + ALDH1A1 + Probe 10 or Probe 11; (8) Enzymatic assay Buffer + ALDH1A2 + Probe 10 or Probe 11; (9) Enzymatic assay Buffer + ALDH1A3 + Probe 10 or Probe 11. […]

[2] = substrate: COc1cc(/C=C/C(O)=C/C(=O)/C=C/c2ccc(OCc3cn(CCOc4ccc(C=O)cc4)nn3)c(OC)c2)ccc1O; test: KM evaluation, probe as substrate (NADH absorbance 340 nm); format: biochemical, human; settings: other: probe as substrate; pH 8.0; 25.0 °C
Procedure: The catalytic activity of the ALDH1As isoenzymes in complex with probe 10 was tested on a Tecan Sunrise 96 Multiplate Reader with Greiner Bio-One 96-UV-Transparent Microplates. […] Each reaction mix was preincubated for 10 min at 25 °C before the analysis. The catalytic activity was measured by monitoring the absorbance at 340 nm (εNADH = 6220 M^−1 cm^−1) for 12 h at 25 °C and the inhibitory parameters were calculated by processing the raw data on GraphPad.

Molecule: COc1cc(/C=C/C(O)=C/C(=O)/C=C/c2ccc(OCc3cn(CCOc4ccc(C(=O)O)cc4)nn3)c(OC)c2)ccc1O [Probe 10-COOH]
- AREA TIC of Probe 10-COOH formed from Probe 10 (ALDH1A2): 18647884 and 19590595 and 21767211 and 22597746
- AREA TIC of Probe 10-COOH formed from Probe 10 (ALDH1A1): 26353656 and 30637066 and 18030552 and 17027138
- AREA TIC of Probe 10-COOH formed from Probe 10 [1]: 0

B1: ALDH1A2 (Homo sapiens) (protein)
chain: T1 sequence (O94788 1-518)
notes: E. coli BL21 (DE3) were transformed with the full-length expression vector of each isoform; His-tag; made in house; host or cells: E. coli BL21 (DE3)
- Km [2]: 220.0 µM

B2: ALDH1A1 (Homo sapiens) (protein)
chain: T2 sequence (P00352 1-501)
notes: as for B1
- Km [2]: 255.2 µM
